Results taken from patent US20210161855A1, “5-LIPOXYGENASE ANTAGONISTS” (INSTITUTO DE MEDICINA MOLECULAR JOÃO LOBO ANTUNES, priority 2017, published 2021).

Columns and labels:
12-LO = target: T1, 12-LO (Homo sapiens, UniProt P18054); assay: 12-LO inhibition in intact human neutrophils; format: cell-based; conditions: without DTT
T1 construct: endogenous in cells; host or cells: human blood neutrophil preparation
T1 sequence (P18054 1-663): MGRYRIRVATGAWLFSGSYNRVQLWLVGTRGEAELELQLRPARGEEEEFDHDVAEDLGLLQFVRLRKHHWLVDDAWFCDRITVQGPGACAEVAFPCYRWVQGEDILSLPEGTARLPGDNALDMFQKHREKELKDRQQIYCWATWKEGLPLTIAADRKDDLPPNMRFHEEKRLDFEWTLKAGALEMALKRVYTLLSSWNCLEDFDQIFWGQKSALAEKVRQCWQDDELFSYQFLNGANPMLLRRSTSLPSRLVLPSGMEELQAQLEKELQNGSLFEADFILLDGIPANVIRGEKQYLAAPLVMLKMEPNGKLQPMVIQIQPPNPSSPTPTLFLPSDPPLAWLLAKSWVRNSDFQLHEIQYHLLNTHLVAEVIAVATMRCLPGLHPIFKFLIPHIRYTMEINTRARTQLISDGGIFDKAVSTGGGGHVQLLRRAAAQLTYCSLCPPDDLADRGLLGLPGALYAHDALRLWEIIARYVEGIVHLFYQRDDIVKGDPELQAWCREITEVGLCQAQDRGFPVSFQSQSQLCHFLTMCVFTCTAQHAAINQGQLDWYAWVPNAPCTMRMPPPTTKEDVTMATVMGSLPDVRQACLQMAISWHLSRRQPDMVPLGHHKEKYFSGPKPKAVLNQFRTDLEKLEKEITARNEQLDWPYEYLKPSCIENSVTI
Protocol: (§1) Peripheral blood (University Hospital Jena, Germany) was withdrawn from healthy adult volunteers with consent that had not taken any anti-inflammatory drugs during the last 10 days, by venipuncture in heparinized tubes (16 IE heparin/mL blood). The blood was centrifuged at 4000 g for 20 min at 20° C. for preparation of leukocyte concentrates. Leukocyte concentrates were then subjected to dextran sedimentation and centrifugation on lymphocyte separation medium (LSM 1077, PAA, Colbe, Germany). Contaminating erythrocytes of pelleted neutrophils were removed by hypotonic Iysis. […] Method B. […] Cysteinyl-LTs C4, D4 and E4 were not detected (amounts were below detection limit), and oxidation products of LTB4 were not determined.

EP4 = EP4 (Homo sapiens, UniProt P35408); assay: Prostanoid EP4 receptor activation, functional assay; format: cell-based; conditions: 150 μM
EP2 = EP2 (Homo sapiens, UniProt P43116); assay: Prostanoid EP2 receptor antagonism, functional assay; format: cell-based; conditions: 150 μM
Escherichia coli K12 = assay: MIC/MBC assay, E. coli; format: cell-based; conditions: read-out: Minimum bactericidal concentration
Protocol: Escherichia coli K12 and Staphylococcus aureus ATCC 25923 were grown overnight at 37° C. and re-inoculated in 24-well plates containing 2.5 mL of Luria Bertani medium (LB) to give an optical density of ˜0.01 at 600 nm. Stock solutions of β-lapachone, and lapachol were prepared in DMSO (1% final concentration) and added to the cell suspensions to obtain final concentrations between 5-210 μM. Wells containing a growth control (cell suspensions with 1% DMSO) and a sterile media control were also prepared. The plates were incubated for 18 h at 37° C. and 90 r.p.m. The concentration of compound in the first well in the series that presented no sign of visible growth was reported as the MIC. The OD600 of the cultures was also measured. All the MIC wells were serially diluted in phosphate buffer saline (PBS) and plated onto LB agar plates.

[1] = mouse, in vivo, iv, 100 mg/kg
[2] = Dynamic light scattering, colloidal aggregation; format: physicochemical; conditions: relevant concentrations
Protocol: Dynamic light scattering (Zetasizer Nano S, Malvern, UK) was used to determine compound colloidal aggregation potential and kinetic solubility. The particle sizes were measured at 25° C. […] Colloidal aggregation was measured through sequential dilutions. Solubility was assessed at 25 μM after 0 and 30 minutes.

HL-60 = assay: Cell viability, AML model HL-60 (FIG. 9a); format: cell-based; conditions: Homo sapiens, n=3
15-LO = 15-LO inhibition in intact human neutrophils; format: cell-based; conditions: without DTT
Protocol: as §1

5-LO = target: T2, 5-LO (Homo sapiens, UniProt P09917); assay: Circular dichroism binding, protein melting curves
T2 sequence (P09917 1-674): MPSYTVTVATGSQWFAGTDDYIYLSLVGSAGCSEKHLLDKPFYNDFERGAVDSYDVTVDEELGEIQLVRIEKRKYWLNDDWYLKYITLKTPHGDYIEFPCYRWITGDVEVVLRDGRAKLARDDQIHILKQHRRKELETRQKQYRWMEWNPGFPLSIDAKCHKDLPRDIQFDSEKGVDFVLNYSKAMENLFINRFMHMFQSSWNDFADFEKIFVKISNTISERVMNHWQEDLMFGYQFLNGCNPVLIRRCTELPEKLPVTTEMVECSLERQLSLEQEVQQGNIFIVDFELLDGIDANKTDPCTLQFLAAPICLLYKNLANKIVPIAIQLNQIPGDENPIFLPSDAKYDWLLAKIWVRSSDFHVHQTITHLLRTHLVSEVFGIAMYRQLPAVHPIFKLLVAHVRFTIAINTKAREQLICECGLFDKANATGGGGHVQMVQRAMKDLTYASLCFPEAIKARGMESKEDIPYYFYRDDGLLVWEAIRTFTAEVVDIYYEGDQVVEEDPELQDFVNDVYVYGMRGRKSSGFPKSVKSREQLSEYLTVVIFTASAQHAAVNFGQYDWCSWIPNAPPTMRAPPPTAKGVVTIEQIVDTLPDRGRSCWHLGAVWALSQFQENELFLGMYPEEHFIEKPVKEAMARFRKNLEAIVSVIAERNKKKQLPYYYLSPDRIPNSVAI

EP3 = target: T3, EP3 (Homo sapiens, UniProt P43115); assay: Prostanoid EP3 receptor antagonism, functional assay; format: cell-based; conditions: 150 μM
T3 sequence (P43115 1-390): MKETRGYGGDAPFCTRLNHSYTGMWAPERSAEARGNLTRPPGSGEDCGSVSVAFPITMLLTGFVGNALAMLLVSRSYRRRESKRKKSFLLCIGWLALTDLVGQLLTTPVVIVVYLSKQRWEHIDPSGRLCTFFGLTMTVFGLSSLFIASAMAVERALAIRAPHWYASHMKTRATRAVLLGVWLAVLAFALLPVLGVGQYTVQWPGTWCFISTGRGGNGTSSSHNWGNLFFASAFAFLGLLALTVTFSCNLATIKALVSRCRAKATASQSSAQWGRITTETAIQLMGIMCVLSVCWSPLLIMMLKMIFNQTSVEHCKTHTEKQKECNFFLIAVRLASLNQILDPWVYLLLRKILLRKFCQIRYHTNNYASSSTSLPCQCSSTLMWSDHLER

HEL = assay: Cell viability, AML model HEL (FIG. 9a); format: cell-based; conditions: Homo sapiens, n=3

EP2, sequence (P43116 whole entry): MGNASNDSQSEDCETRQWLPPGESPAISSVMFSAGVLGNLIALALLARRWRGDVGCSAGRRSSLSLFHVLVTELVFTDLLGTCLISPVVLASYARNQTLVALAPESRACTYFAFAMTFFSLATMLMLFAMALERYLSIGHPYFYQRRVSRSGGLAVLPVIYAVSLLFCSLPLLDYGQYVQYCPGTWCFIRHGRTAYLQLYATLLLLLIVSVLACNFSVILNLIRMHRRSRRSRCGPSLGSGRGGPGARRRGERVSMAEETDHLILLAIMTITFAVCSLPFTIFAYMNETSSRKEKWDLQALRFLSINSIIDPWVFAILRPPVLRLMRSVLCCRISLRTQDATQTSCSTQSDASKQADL
EP4, sequence (P35408 whole entry): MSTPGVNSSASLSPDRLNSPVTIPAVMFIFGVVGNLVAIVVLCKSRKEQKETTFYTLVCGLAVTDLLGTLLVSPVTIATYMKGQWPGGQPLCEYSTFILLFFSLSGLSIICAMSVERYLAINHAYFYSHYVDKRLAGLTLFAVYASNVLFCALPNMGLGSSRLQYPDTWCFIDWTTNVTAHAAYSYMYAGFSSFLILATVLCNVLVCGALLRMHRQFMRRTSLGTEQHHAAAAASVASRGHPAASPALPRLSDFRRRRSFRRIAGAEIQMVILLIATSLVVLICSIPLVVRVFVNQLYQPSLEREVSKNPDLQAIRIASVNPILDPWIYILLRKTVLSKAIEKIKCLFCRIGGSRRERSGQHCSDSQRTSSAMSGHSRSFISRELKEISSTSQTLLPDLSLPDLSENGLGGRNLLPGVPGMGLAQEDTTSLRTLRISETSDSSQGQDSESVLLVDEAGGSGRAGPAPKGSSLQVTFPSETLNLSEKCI

Question: For `CC1(C)CCC2=C(O1)c1ccccc1C(=O)C2=O` [Compound 1, 3,4-dihydro-2,2-dimethyl-2H-naphtho[1,2-b]pyran-5,6-dione], which IC50 (12-LO) is on record?
Answer: > 30 µM

Question: And the EP4 activation (EP4)?
Answer: 53%

Question: What about the EP2 antagonist effect (EP2) of the same compound?
Answer: 60%

Question: And the MBC (Escherichia coli K12)?
Answer: > 200 µM

Question: And the “Toxicity at higher doses” value [1]?
Answer: toxicity

Question: What about the Colloidal aggregation [2] of the same compound?
Answer: no colloidal aggregation

Question: What about the IC50 (HL-60) of the same compound?
Answer: 2.7 µM

Question: What about the IC50 (15-LO) of the same compound?
Answer: > 30 µM

Question: What about the Kd (5-LO) of the same compound?
Answer: 5.7 µM

Question: And the EP3 antagonist effect (EP3)?
Answer: 95%

Question: And the IC50 (HEL)?
Answer: 0.9 µM
